Laboratory results from patent US10716756B2, “Compositions and methods for reducing reperfusion injury” (VIVACELLE BIO, INC., priority 2016, dated 2020).
Several values for one entry are separate records, joined by “and”; a condition that tells them apart may be missing. Identical values can stand only once.

Legend:
human neutrophils = conditions: Simpkins et al. 1985; cited from earlier work
[1] = Battion et al. 1968; cited from earlier work
[2] = Nitric oxide uptake/content of soybean oil emulsion by mass spectrometry
Procedure: Some samples (1 ml each) were left open to air in 2.0 ml tubes for 30 minutes prior to dissolved gas analysis. In other experiments the emulsion was placed into a 15 ml tube. The headspace was filled with the gas under study and the gas was allowed to enter the emulsion by equilibration over 60 minutes with the tube on its side to increase the gas emulsion interaction. 50 μL drawn from each of these fluids were injected into a Sievers purge vessel at 37° C. containing 36 ml of a mildly acidic solution consisting of 32 ml of 1M HCL and 4 ml of 0.5M ascorbic acid. […] Signals generated at m/z=32 upon injection of RL and lipid emulsion samples were integrated using Peakfit and compared to those obtained with distilled water.
In another set of experiments we measured the uptake of nitric oxide by a commercially available 20% soybean oil emulsion, Liposyn III 20%. This emulsion contains 20% soybean oil, 1.2% egg phospholipids and 2.5% glycerin in water. Using NaOH pH was adjusted to 8.3. […] 100 ppm nitric oxide in helium was used to purge the hesdspace for two minutes taking care not to bubble the fluid. For sixty minutes the sample was allowed to reach gas-liquid equilibrium with the tube placed on its side to maximize gas-emulsion contact.
The uptake of NO and O2 by a commercial 20% soybean oil emulsion, Liposyn, was measured using mass spectrometry. […] To approximate field conditions, no warming or respiratory support was provided. Next, 55% of blood volume was removed within 2 minutes. […] The time of clinical death was defined as the cessation of respiration. […] In 5 mice a volume of Ringer's lactate equal to the volume of blood removed was administered via the internal jugular vein over 2 minutes immediately after the loss of chest wall movement. […] In 6 mice a volume of Ringer's lactate equal to the volume of blood removed was administered via the carotid artery over 2 minutes. […] In the next set of experiments, infusing Ringers' lactate was delayed for 3 minutes. […] A volume of emulsion equal to the volume of blood that had been removed was infused.

[3] = 1 atm; from The Engineering Toolbox; cited from earlier work
[4] = anesthetic; cited from earlier work
[5] = published value; cited from earlier work

## C=CCN1CC[C@]23c4c5ccc(O)c4O[C@H]2C(=O)CC[C@]3(O)[C@H]1C5 [(+) naloxone]
Human neutrophils
  concentration range that produces anti-inflammatory effect: 10^−5-10^−4 M

## O=O [Oxygen]
[1]
  solubility in lipid relative to water: 4.41 times

## O [Water]
[2]; 100 ppm nitric oxide in helium headspace, 60 min equilibration
  NO Content, single sample: 2.29 mol/L and 1.52 mol/L and 1.63 mol/L and 1.72 mol/L and 1.69 mol/L
[2]; 100 ppm nitric oxide in helium headspace, 60 min equilibration, 5 samples
  NO Content, Mean: 1.77 mol/L
[2]; mass spectrometry, Example 7
  NO content: 2.12×10^−3±0.17 moles/L
[3]
  Oxygen Content at 25° C. and Sea level Pressure: 8.3 mg/L

## [Xe] [Xenon]
[4]
  minimum alveolar concentration (MAC): 71%

## hemoglobin
[5]
  oxygen release time: 17.5 ms
